According to ChEMBL document CHEMBL5653597, “CI-1033, an irreversible pan-erbB receptor inhibitor and its potential application for the treatment of breast cancer” (Semin Oncol, 2003):
Counter-ions that a name gives are not always drawn.

Tests used:
Set-up in all cases: species or system Homo sapiens
[1] = Inhibition of purified PDGFR (unknown origin)
[2] = Inhibition of purified FGFR (unknown origin)
[3] = Inhibition of purified CDK2/Cyclin A (unknown origin)

IC50 [1]: > 50 µM
IC50 [2]: > 50 µM
IC50 [3]: > 50 µM
SMILES: C=CC(=O)Nc1cc2c(Nc3ccc(F)c(Cl)c3)ncnc2cc1OCCCN1CCOCC1 [CANERTINIB DIHYDROCHLORIDE]
